{"source": "patent US20080017207A1", "about": "“Reduction of the Deleterious Effects of Tobacco Smoking by the Induction of Phase 2 Enzymes by Nerf2” (SAVIPU PHARMACEUTICALS, priority 2006, published 2008)", "key": {"[1]": {"system": "benzo[a]pyrene-induced gastric neoplasia", "details": "cited from earlier work"}, "[2]": {"system": "benzo[a]pyrene-induced transformation of RTE cells", "test": "rat tracheal epithelial (RTE) cell focus inhibition assay", "type": "cell-based", "procedure": "(§1) The rat tracheal epithelial (RTE) cell focus inhibition assay was used to identify potential chemopreventive activity of tanshinone IIA. Tanshinone IIA was evaluated for its ability to inhibit benzo[a]pyrene-induced transformation of RTE cells. Tracheal epithelial cells were isolated from 8-12 week-old male Fisher 344 rats and plated on collagen coated dishes. Initially, a nontoxic concentration of tanshinone IIA was determined by treating RTE cells with a range of 1.5 nM to 3000 nM of tanshinone IIA. […] About 10% cells survived at a concentration of 1500 nM. Freshly isolated RTE cells were exposed to benzo[a]pyrene alone or in combination with tanshinone IIA. Benzo[a]pyrene was washed out after an exposure of 24 h. The maximal non-toxic concentration and four half log concentrations of tanshinone IIA (300 nM to 3 nM) were used for the chemopreventive assay. After 30 days in culture, transformed foci were scored and inhibition was quantitated. […] A positive control of retinoic acid inhibited the transformation frequency by 50% at 1 nM."}, "NF-κB": {"system": "NF-κB", "details": "as disclosed in U.S. Application Ser. No. 60/779,142; cited from earlier work"}, "RTE cells": {"system": "RTE cells", "test": "toxicity of tanshinone IIA to RTE cells", "type": "cell-based, rat", "procedure": "as §1"}}}
{"smiles": "Cc1c(-c2cnccn2)ssc1=S", "note": "[Oltipraz, 4-methyl-5-[2-pyrazinyl]-1,2-dithiole-3-thione]", "values": [{"measurement": "tumor burden", "setting": "[1]; nrf2-deficient mice", "result": "no effect"}, {"measurement": "multiplicity of gastric neoplasia", "setting": "[1]; wild-type mice", "result": "significantly reduced"}]}
{"smiles": "Cc1coc2c1C(=O)C(=O)c1c-2ccc2c1CCCC2(C)C", "note": "[Tanshinone IIA]", "values": [{"measurement": "prevention of benzo[a]pyrene-induced transformation of rat tracheal epithelial cells", "setting": "[2]; 3 nM", "result": "totally prevented"}, {"measurement": "inhibition of transformation frequency", "setting": "[2]; each dose level, 300 nM to 3 nM, foci scored after 30 days in culture", "result": "complete inhibition"}, {"measurement": "inhibition of NF-κB", "setting": "NF-κB", "result": "demonstrated inhibition"}, {"measurement": "cells survived", "setting": "RTE cells; at 1500 nM", "result": "About 10%"}, {"measurement": "nontoxic concentration", "setting": "RTE cells; range tested 1.5 nM to 3000 nM", "result": "≤ 150", "unit": "nM"}, {"measurement": "toxicity to the cells", "setting": "RTE cells; very low concentrations (3 nM)", "result": "nontoxic"}]}
{"smiles": "CC1=C(/C=C/C(C)=C/C=C/C(C)=C/C(=O)O)C(C)(C)CCC1", "note": "[retinoic acid, reference compound]", "values": [{"measurement": "inhibition at 0.001 µM", "setting": "[2]; Rattus norvegicus, at 1 nM, positive control, read-out: inhibition of transformation frequency", "result": 50, "unit": "%"}]}
